Test results reported in PubChem BioAssay AID248 (DTP/NCI, 2004).
Where “and” joins values, the source holds several entries; their conditions need not be identical. Equal values may be shown once. Toxic doses and inconclusive results are not listed.

System: L1210 leukemia ip in BDF1 mice, survival T/C
Experiment: NCI In Vivo Anticancer Drug Screen. Data for tumor model L1210 Leukemia (intraperitoneal) in B6D2F1 (BDF1) mice
Settings: endpoint: mean survival time, higher = longer survival
Method in brief: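 Read-out is survival time, reported as the treated-group measurement over the vehicle-control measurement.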

[1] = dose: 100.0 mg/kg/injection, schedule: Q01DX009 (ip), vehicle: saline with Tween-80
[2] = dose: 200.0 mg/kg/injection, schedule: Q01DX009 (ip), vehicle: saline with Tween-80
[3] = dose: 400.0 mg/kg/injection, schedule: Q01DX009 (ip), vehicle: saline with Tween-80
[4] = dose: 37.5 mg/kg/injection, schedule: Q04DX003 (ip), vehicle: saline
[5] = dose: 75.0 mg/kg/injection, schedule: Q04DX003 (ip), vehicle: saline
[6] = dose: 100.0 mg/kg/injection, schedule: Q04DX003 (ip), vehicle: saline
[7] = dose: 200.0 mg/kg/injection, schedule: Q04DX003 (ip), vehicle: saline
[8] = dose: 400.0 mg/kg/injection, schedule: Q04DX003 (ip), vehicle: saline
[9] = dose: 50.0 mg/kg/injection, schedule: Q01DX001 (ip), vehicle: saline
[10] = dose: 100.0 mg/kg/injection, schedule: Q01DX001 (ip), vehicle: saline
[11] = dose: 100.0 mg/kg/injection, schedule: Q01DX009 (ip), vehicle: Klucel (hydroxypropylcellulose) (HPC)
[12] = dose: 25.0 mg/kg/injection, schedule: Q01DX009 (ip), vehicle: saline
[13] = dose: 50.0 mg/kg/injection, schedule: Q01DX009 (ip), vehicle: saline

Question: Which results are given for `O=C(Nc1cccc(C(=O)Nc2ccc(C3=NCCN3)cc2)c1)c1ccc(C2=NCCN2)cc1`?
Answer: T/C (dose: 15.0 mg/kg/injection, schedule: Q01DX Z (ip), vehicle: carboxymethylcellulose (CMC)): 96 % of control; T/C (dose: 15.0 mg/kg/injection, schedule: Q01DX Z (sc), vehicle: saline): 120 % of control; T/C (dose: 30.0 mg/kg/injection, schedule: Q01DX Z (ip), vehicle: carboxymethylcellulose (CMC)): 120 % of control; T/C (dose: 60.0 mg/kg/injection, schedule: Q01DX Z (sc), vehicle: saline): 109 % of control; T/C (dose: 62.5 mg/kg/injection, schedule: Q01DX010 (oral), vehicle: saline): 104 % of control; T/C (dose: 88.0 mg/kg/injection, schedule: Q01DX007 (oral), vehicle: carboxymethylcellulose (CMC)): 101 % of control; T/C (dose: 120.0 mg/kg/injection, schedule: Q01DX Z (ip), vehicle: carboxymethylcellulose (CMC)): 185 % of control; T/C (dose: 120.0 mg/kg/injection, schedule: Q01DX Z (sc), vehicle: saline): 230 % of control; T/C (dose: 125.0 mg/kg/injection, schedule: Q01DX010 (oral), vehicle: saline): 104 % of control; T/C (dose: 175.0 mg/kg/injection, schedule: Q01DX007 (oral), vehicle: carboxymethylcellulose (CMC)): 97 % of control; T/C (dose: 250.0 mg/kg/injection, schedule: Q01DX010 (oral), vehicle: saline): 103 % of control; T/C (dose: 350.0 mg/kg/injection, schedule: Q01DX007 (oral), vehicle: carboxymethylcellulose (CMC)): 105 % of control; T/C (dose: 500.0 mg/kg/injection, schedule: Q01DX010 (oral), vehicle: saline): 106 % of control; T/C (dose: 700.0 mg/kg/injection, schedule: Q01DX007 (oral), vehicle: carboxymethylcellulose (CMC)): 105 % of control

Question: What does the source list for `O=c1[nH]c(=S)[nH]c(Cc2ccccc2)c1CCO`?
Answer: T/C [1]: 96 % of control; T/C [2]: 108 % of control; T/C [3]: 96 % of control

Question: Which results are given for `O=C(O)c1sccc1-c1cccc2ccccc12`?
Answer: T/C (dose: 50.0 mg/kg/injection, schedule: Q01DX001 (ip), vehicle: Klucel (hydroxypropylcellulose) (HPC)): 94 % of control; T/C (dose: 100.0 mg/kg/injection, schedule: Q01DX001 (ip), vehicle: Klucel (hydroxypropylcellulose) (HPC)): 96 % of control; T/C (dose: 200.0 mg/kg/injection, schedule: Q01DX001 (ip), vehicle: Klucel (hydroxypropylcellulose) (HPC)): 94 % of control

Question: With `CC1CN(Cc2cccc(C#N)c2)CC(C)N1` (stereo not given) as the compound, how does the T/C (dose: 25.0 mg/kg/injection, schedule: Q01DX009 (ip), vehicle: water) read?
Answer: 93 % of control

Question: And the T/C (dose: 50.0 mg/kg/injection, schedule: Q01DX009 (ip), vehicle: water)?
Answer: 101 % of control

Question: What about the T/C (dose: 100.0 mg/kg/injection, schedule: Q01DX009 (ip), vehicle: water) of the same compound?
Answer: 100 % of control

Question: How did the T/C [4] turn out when `NCCCNc1ccc([N+](=O)[O-])cc1` was run?
Answer: 101 % of control

Question: What about the T/C [5] of the same compound?
Answer: 102 % of control

Question: What about the T/C (dose: 150.0 mg/kg/injection, schedule: Q04DX003 (ip), vehicle: saline) of the same compound?
Answer: 101 % of control

Question: Which T/C (dose: 50.0 mg/kg/injection, schedule: Q01DX009 (ip), vehicle: acetone) does the source give for `C1OCC2(CO1)COCOC2` here?
Answer: 95 % of control

Question: And the T/C (dose: 100.0 mg/kg/injection, schedule: Q01DX009 (ip), vehicle: acetone)?
Answer: 91 % of control

Question: What about the T/C [6] of the same compound?
Answer: 95 % of control

Question: And the T/C (dose: 200.0 mg/kg/injection, schedule: Q01DX009 (ip), vehicle: acetone)?
Answer: 93 % of control

Question: What about the T/C [7] of the same compound?
Answer: 103 % of control

Question: What about the T/C [8] of the same compound?
Answer: 105 % of control

Question: What does the source list for `NC(=O)N/C=C1\CCCOC1=O`?
Answer: T/C (dose: 50.0 mg/kg/injection, schedule: Q01DX009 (ip), vehicle: saline with Tween-80): 98 % of control; T/C [1]: 93 % of control and 91 % of control; T/C (dose: 100.0 mg/kg/injection, schedule: Q04DX003 (ip), vehicle: saline with Tween-80): 96 % of control; T/C [2]: 98 % of control and 109 % of control; T/C (dose: 200.0 mg/kg/injection, schedule: Q04DX003 (ip), vehicle: saline with Tween-80): 104 % of control; T/C [3]: 109 % of control

Question: With `COc1cc(OC)c2c(=O)c(O)c(-c3ccc(OC)c(OC)c3)oc2c1` as the compound, how does the T/C [9] read?
Answer: 91 % of control

Question: And the T/C [10]?
Answer: 98 % of control

Question: And the T/C (dose: 200.0 mg/kg/injection, schedule: Q01DX001 (ip), vehicle: saline)?
Answer: 98 % of control

Question: And the T/C (dose: 400.0 mg/kg/injection, schedule: Q01DX001 (ip), vehicle: saline)?
Answer: 96 % of control

Question: Which results are given for `O=C1C=C2C=CCCC2CC1` (stereo not given)?
Answer: T/C (dose: 75.0 mg/kg/injection, schedule: Q01DX001 (ip), vehicle: other): 104 % of control; T/C (dose: 150.0 mg/kg/injection, schedule: Q01DX001 (ip), vehicle: other): 98 % of control; T/C (dose: 300.0 mg/kg/injection, schedule: Q01DX001 (ip), vehicle: other): 114 % of control

Question: For `Cc1cc(C)c(NC(=O)Nc2ccc(Cl)cc2)c(C)c1`, which T/C [11] is on record?
Answer: 92 % of control

Question: What about the T/C (dose: 100.0 mg/kg/injection, schedule: Q04DX003 (ip), vehicle: Klucel (hydroxypropylcellulose) (HPC)) of the same compound?
Answer: 100 % of control

Question: What about the T/C (dose: 200.0 mg/kg/injection, schedule: Q01DX009 (ip), vehicle: Klucel (hydroxypropylcellulose) (HPC)) of the same compound?
Answer: 92 % of control

Question: What about the T/C (dose: 200.0 mg/kg/injection, schedule: Q04DX003 (ip), vehicle: Klucel (hydroxypropylcellulose) (HPC)) of the same compound?
Answer: 97 % of control

Question: What about the T/C (dose: 400.0 mg/kg/injection, schedule: Q01DX009 (ip), vehicle: Klucel (hydroxypropylcellulose) (HPC)) of the same compound?
Answer: 96 % of control

Question: And the T/C (dose: 400.0 mg/kg/injection, schedule: Q04DX003 (ip), vehicle: Klucel (hydroxypropylcellulose) (HPC))?
Answer: 97 % of control

Question: With `C=C(C)CCC1C(=O)N(c2ccccc2)N(c2ccccc2)C1=O` as the compound, how does the T/C (dose: 25.0 mg/kg/injection, schedule: Q01DX009 (ip), vehicle: Klucel (hydroxypropylcellulose) (HPC)) read?
Answer: 103 % of control

Question: And the T/C (dose: 50.0 mg/kg/injection, schedule: Q01DX009 (ip), vehicle: Klucel (hydroxypropylcellulose) (HPC))?
Answer: 95 % of control

Question: And the T/C [11]?
Answer: 100 % of control

Question: Which results are given for `CC(N)Cc1ccccc1` (stereo not given)?
Answer: T/C (dose: 1.17 mg/kg/injection, schedule: Q04DX003 (ip), vehicle: saline): 98 % of control; T/C (dose: 2.34 mg/kg/injection, schedule: Q04DX003 (ip), vehicle: saline): 98 % of control; T/C (dose: 2.5 mg/kg/injection, schedule: Q04DX003 (ip), vehicle: saline): 100 % of control; T/C (dose: 4.68 mg/kg/injection, schedule: Q01DX009 (ip), vehicle: saline): 94 % of control; T/C (dose: 4.68 mg/kg/injection, schedule: Q04DX003 (ip), vehicle: saline): 93 % of control; T/C (dose: 5.0 mg/kg/injection, schedule: Q04DX003 (ip), vehicle: saline): 96 % of control; T/C (dose: 6.25 mg/kg/injection, schedule: Q01DX009 (ip), vehicle: saline): 103 % of control; T/C (dose: 9.37 mg/kg/injection, schedule: Q01DX009 (ip), vehicle: saline): 93 % of control; T/C (dose: 9.37 mg/kg/injection, schedule: Q04DX003 (ip), vehicle: saline): 106 % of control; T/C (dose: 10.0 mg/kg/injection, schedule: Q04DX003 (ip), vehicle: saline): 97 % of control; T/C (dose: 12.5 mg/kg/injection, schedule: Q01DX001 (ip), vehicle: saline): 96 % of control; T/C (dose: 12.5 mg/kg/injection, schedule: Q01DX009 (ip), vehicle: saline): 97 % of control; T/C (dose: 18.74 mg/kg/injection, schedule: Q04DX003 (ip), vehicle: saline): 107 % of control; T/C (dose: 18.75 mg/kg/injection, schedule: Q01DX009 (ip), vehicle: saline): 87 % of control; T/C (dose: 18.75 mg/kg/injection, schedule: Q04DX003 (ip), vehicle: saline): 97 % of control; T/C (dose: 20.0 mg/kg/injection, schedule: Q04DX003 (ip), vehicle: saline): 97 % of control; T/C (dose: 25.0 mg/kg/injection, schedule: Q01DX001 (ip), vehicle: saline): 101 % of control; T/C [12]: 100 % of control; T/C (dose: 25.0 mg/kg/injection, schedule: Q04DX003 (ip), vehicle: saline): 100 % of control; T/C (dose: 37.48 mg/kg/injection, schedule: Q03HX024 (ip), vehicle: saline): 96 % of control; T/C (dose: 37.5 mg/kg/injection, schedule: Q01DX009 (ip), vehicle: saline): 103 % of control; T/C [4]: 108 % of control; T/C (dose: 40.0 mg/kg/injection, schedule: Q04DX003 (ip), vehicle: saline): 103 % of control; T/C [9]: 109 % of control; T/C [13]: 101 % of control; T/C (dose: 50.0 mg/kg/injection, schedule: Q04DX003 (ip), vehicle: saline): 100 % of control; T/C [5]: 100 % of control; T/C [10]: 102 % of control; T/C [6]: 105 % of control

Question: Which T/C (dose: 6.0 mg/kg/injection, schedule: Q01DX009 (ip), vehicle: saline) does the source give for `C=C[C@@](C)(O)CC/C=C(/C)CCC=C(C)C` here?
Answer: 112 % of control

Question: What about the T/C (dose: 12.0 mg/kg/injection, schedule: Q01DX009 (ip), vehicle: saline) of the same compound?
Answer: 100 % of control

Question: What about the T/C [12] of the same compound?
Answer: 101 % of control

Question: And the T/C [13]?
Answer: 106 % of control

Question: What about the T/C [6] of the same compound?
Answer: 97 % of control

Question: And the T/C [7]?
Answer: 96 % of control

Question: What about the T/C [8] of the same compound?
Answer: 102 % of control
